Results taken from PMC5613062 (Investigational New Drugs, 2017).

Key:
[1] = tested on: CYP 3A4; set-up: method as in earlier work; details: at concentrations up to 50uM; ref IB; cited from earlier work
[2] = set-up: method as in earlier work; details: dog; ref IB; cited from earlier work
[3] = Pharmacokinetics alone and in combination, selumetinib + erlotinib arm

SMILES: Cn1cnc2c(F)c(Nc3ccc(Br)cc3Cl)c(C(=O)NOCCO)cc21 [Selumetinib]
- inhibition of CYP3A4 [1]: no inhibition
- Protein binding [2]: 94.6%
- Cmax ([3]; geometric mean (% CV), dosed alone, selumetinib 50 mg cohort (N = 14), erlotinib 100 mg QD): 926.5 (69.10) ng/mL
- Cmax ([3]; geometric mean (% CV), dosed in combination, selumetinib 50 mg BID (N = 12) + erlotinib 100 mg QD): 1334 (51.16) ng/mL
- Cmax ([3]; geometric mean, QD cohorts, in combination, selumetinib 50 mg (N = 6) + erlotinib 100 mg QD): 942 ng/mL
- tmax ([3]; human, plasma, oral): 1.25 h
- AUC(0-t) ([3]; human, plasma, oral, 100 mg, AUC(0–8), geometric mean, QD cohorts, dosed alone, selumetinib 100 mg cohort (N = 6), erlotinib 100 mg QD): 4400 ng·h/mL
- AUC(0-t) ([3]; human, plasma, oral, 100 mg, AUC(0–12), geometric mean, QD cohorts, dosed alone, selumetinib 100 mg cohort (N = 6), erlotinib 100 mg QD): 5000 ng·h/mL
- Cmax ([3]; human, plasma, oral, 100 mg, Cmax, geometric mean, QD cohorts, dosed alone, selumetinib 100 mg cohort (N = 6), erlotinib 100 mg QD): 1800 ng/mL
- AUC(0-t) ([3]; human, plasma, oral, AUC(0–8), geometric mean (% CV), dosed alone, selumetinib 50 mg cohort (N = 14), erlotinib 100 mg QD): 2280 ng·h/mL
- AUC(0-t) ([3]; human, plasma, oral, AUC(0–8), geometric mean (% CV), dosed alone, selumetinib 75 mg cohort (N = 6), erlotinib 100 mg QD): 2860 ng·h/mL
- AUC(0-t) ([3]; human, plasma, oral, AUC(0–8), geometric mean (% CV), dosed in combination, selumetinib 50 mg BID (N = 12) + erlotinib 100 mg QD): 3640 ng·h/mL
- AUC(0-t) ([3]; human, plasma, oral, AUC(0–8), geometric mean (% CV), dosed in combination, selumetinib 75 mg BID (N = 6) + erlotinib 100 mg QD): 4350 ng·h/mL
- AUC(0-t) ([3]; human, plasma, oral, AUC(0–8), geometric mean, QD cohorts, dosed alone, selumetinib 50 mg cohort (N = 7), erlotinib 100 mg QD): 1900 ng·h/mL
- AUC(0-t) ([3]; human, plasma, oral, AUC(0–8), geometric mean, QD cohorts, dosed alone, selumetinib 150 mg cohort (N = 13), erlotinib 100 mg QD): 6780 ng·h/mL
- AUC(0-t) ([3]; human, plasma, oral, AUC(0–8), geometric mean, QD cohorts, in combination, selumetinib 50 mg (N = 6) + erlotinib 100 mg QD): 2600 ng·h/mL
- AUC(0-t) ([3]; human, plasma, oral, AUC(0–8), geometric mean, QD cohorts, in combination, selumetinib 100 mg (N = 6) + erlotinib 100 mg QD): 7070 ng·h/mL
- AUC(0-t) ([3]; human, plasma, oral, AUC(0–8), geometric mean, QD cohorts, in combination, selumetinib 150 mg (N = 12) + erlotinib 100 mg QD): 9190 ng·h/mL
- AUC(0-t) ([3]; human, plasma, oral, AUC(0–12), geometric mean (% CV), dosed alone, selumetinib 50 mg cohort (N = 14), erlotinib 100 mg QD): 2700 ng·h/mL
- AUC(0-t) ([3]; human, plasma, oral, AUC(0–12), geometric mean (% CV), dosed alone, selumetinib 75 mg cohort (N = 6), erlotinib 100 mg QD): 3200 ng·h/mL
- AUC(0-t) ([3]; human, plasma, oral, AUC(0–12), geometric mean (% CV), dosed in combination, selumetinib 50 mg BID (N = 12) + erlotinib 100 mg QD): 4010 ng·h/mL
- AUC(0-t) ([3]; human, plasma, oral, AUC(0–12), geometric mean (% CV), dosed in combination, selumetinib 75 mg BID (N = 6) + erlotinib 100 mg QD): 4830 ng·h/mL
- AUC(0-t) ([3]; human, plasma, oral, AUC(0–12), geometric mean, QD cohorts, dosed alone, selumetinib 50 mg cohort (N = 7), erlotinib 100 mg QD): 2130 ng·h/mL
- AUC(0-t) ([3]; human, plasma, oral, AUC(0–12), geometric mean, QD cohorts, dosed alone, selumetinib 150 mg cohort (N = 13), erlotinib 100 mg QD): 7740 ng·h/mL
- AUC(0-t) ([3]; human, plasma, oral, AUC(0–12), geometric mean, QD cohorts, in combination, selumetinib 100 mg (N = 6) + erlotinib 100 mg QD): 7760 ng·h/mL
- AUC(0-t) ([3]; human, plasma, oral, AUC(0–12), geometric mean, QD cohorts, in combination, selumetinib 150 mg (N = 12) + erlotinib 100 mg QD): 10500 ng·h/mL
- Cmax ([3]; human, plasma, oral, Cmax, geometric mean (% CV), dosed alone, selumetinib 75 mg cohort (N = 6), erlotinib 100 mg QD): 1050 ng/mL
- Cmax ([3]; human, plasma, oral, Cmax, geometric mean (% CV), dosed in combination, selumetinib 75 mg BID (N = 6) + erlotinib 100 mg QD): 1660 ng/mL
- Cmax ([3]; human, plasma, oral, Cmax, geometric mean, QD cohorts, dosed alone, selumetinib 50 mg cohort (N = 7), erlotinib 100 mg QD): 683 ng/mL
- Cmax ([3]; human, plasma, oral, Cmax, geometric mean, QD cohorts, dosed alone, selumetinib 150 mg cohort (N = 13), erlotinib 100 mg QD): 2450 ng/mL
- Cmax ([3]; human, plasma, oral, Cmax, geometric mean, QD cohorts, in combination, selumetinib 100 mg (N = 6) + erlotinib 100 mg QD): 2600 ng/mL
- Cmax ([3]; human, plasma, oral, Cmax, geometric mean, QD cohorts, in combination, selumetinib 150 mg (N = 12) + erlotinib 100 mg QD): 2810 ng/mL
